The record followed here is patent US8299048B2, “Hexahydrocyclopentyl[f]indazole sulfonamides and derivatives thereof as selective glucocorticoid receptor modulators” (Merck Sharp & Dohme Corp., priority 2008, dated 2012).

Test [1] deals with T1, human GR (Homo sapiens, UniProt P04150).
T1 sequence (P04150 1-777): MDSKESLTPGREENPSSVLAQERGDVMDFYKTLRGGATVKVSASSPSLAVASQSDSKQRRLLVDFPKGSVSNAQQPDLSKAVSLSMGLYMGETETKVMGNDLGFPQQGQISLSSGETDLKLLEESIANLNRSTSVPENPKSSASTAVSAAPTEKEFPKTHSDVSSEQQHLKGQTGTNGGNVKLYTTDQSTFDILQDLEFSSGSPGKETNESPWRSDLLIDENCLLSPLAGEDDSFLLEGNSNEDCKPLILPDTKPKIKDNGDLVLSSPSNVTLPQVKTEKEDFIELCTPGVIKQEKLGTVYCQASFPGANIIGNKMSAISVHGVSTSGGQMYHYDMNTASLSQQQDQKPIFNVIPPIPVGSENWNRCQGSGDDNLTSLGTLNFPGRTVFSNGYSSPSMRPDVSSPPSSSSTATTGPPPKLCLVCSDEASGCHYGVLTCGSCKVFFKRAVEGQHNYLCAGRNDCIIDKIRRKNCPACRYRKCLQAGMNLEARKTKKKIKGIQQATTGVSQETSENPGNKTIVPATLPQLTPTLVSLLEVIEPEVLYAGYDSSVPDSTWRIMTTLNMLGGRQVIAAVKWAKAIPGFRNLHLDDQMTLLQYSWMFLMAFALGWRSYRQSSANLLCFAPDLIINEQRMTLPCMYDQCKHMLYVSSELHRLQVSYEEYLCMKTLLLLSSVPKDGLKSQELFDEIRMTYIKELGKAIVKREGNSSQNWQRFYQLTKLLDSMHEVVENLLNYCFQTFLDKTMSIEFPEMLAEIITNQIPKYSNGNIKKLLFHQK
Description: Transrepression Assay (GITAR), TNFα-β-lactamase reporter in U937 cells. Format: cell-based. To be noted: for GITAR > GRAMM % SEP: GITAR Emax minus GRAMMER Emax; for EC50: U937 cells, inflection point, read-out: Transrepression U937 Cells GITAR IP. Details: U937 cells contain an endogenous glucocorticoid receptor (GR); endogenous in cells; host or cells: U937 cells stably transfected with the TNF-alpha promoter/beta-lactamase reporter. Summed up: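 U937 cells stably carrying a TNF-α promoter–β-lactamase reporter, with endogenous GR, are preincubated with compound 30–45 min at 37 °C, then stimulated with PMA (5 ng/ml final) and LPS (100 ng/ml final) overnight (~18 hr). β-Lactamase is read with CCF2-AM substrate; repression by 100 nM dexamethasone defines 100%.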

For test [2], the target named is T1, human GR. Description: Trans-Activation Modulation of Glucocorticoid Receptor (GRAMMER), MMTV-LUC reporter, agonist mode. Format: cell-based. Further details: endogenous in cells. To be noted: for Emax: A549, A549 cells, maximum activity, read-out: Transactivation A549 Cells GRAMMER Emax; for EC50: A549 cells, inflection point, read-out: Transactivation A549 Cells GRAMMER IP. Put shortly:
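Readout is luciferase from a modified MMTV LTR promoter after 24 h compound exposure alongside 10 nM dexamethasone (100% activity reference), DMSO ≤1%.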

Setting [3] is: U-937, U937 cells, maximum activity, read-out: Transrepression U937 Cells GITAR Emax.
Setting [4] is: U-937, activity repressed by 100 nM dexamethasone alone set as 100%, read-out: maximal activity in the transrepression (GITAR) assay.

As for `CCS(=O)(=O)N(CC1CCCO1)C[C@H]1CCC2=Cc3c(cnn3-c3ccc(F)cc3)C[C@@]21C` (stereo partly drawn) [Example 174, N-{[(4αR,5S)-1-(4-fluorophenyl)-4α-methyl-1,4,4α,5,6,7-hexahydrocyclopenta[f]indazol-5-yl]methyl}-N-(tetrahydrofuran-2-ylmethyl)ethanesulfonamide], the “GITAR > GRAMM % SEP” value in test [1] came to 4.2%. Moreover, the EC50 in test [1] amounted to 423 nM; in test [2], 527 nM. Further, the Emax is 85.3% in test [1] (setting [3]), above 5% in test [1] (setting [4]) and 81.1% in test [2].

Regarding `Cn1cc(S(=O)(=O)N(CC2CCCO2)C[C@H]2CCC3=Cc4c(cnn4-c4ccc(F)cc4)C[C@@]32C)c(C(F)(F)F)n1` (stereo partly drawn) [Example 175, N-{[(4αR,5S)-1-(4-fluorophenyl)-4α-methyl-1,4,4α,5,6,7-hexahydrocyclopenta[f]indazol-5-yl]methyl}-1-methyl-N-(tetrahydrofuran-2-ylmethyl)-3-(trifluoromethyl)-1H-pyrazole-4-sulfonamide], the EC50 in test [1] was determined as 822 nM; in test [2] it was 381 nM. Also, the figures for the Emax in test [1] (setting [3]), in test [1] (setting [4]) and in test [2] were 47.5%, above 5% and 22.7%, respectively.

For `Cc1noc(C)c1S(=O)(=O)N(C)C[C@H]1CCC2=Cc3c(cnn3-c3ccc(F)cc3)C[C@@]21C` [Example 176, N-{[(4αR,5S)-1-(4-fluorophenyl)-4α-methyl-1,4,4α,5,6,7-hexahydrocyclopenta[f]indazol-5-yl]methyl}-N,3,5-trimethylisoxazole-4-sulfonamide], the “GITAR > GRAMM % SEP” value in test [1] came to 17.6%. In addition, the figures for the EC50 in test [1] and in test [2] were 316 nM and 246 nM, respectively. In addition, the results for the Emax in test [1] (setting [3]), in test [1] (setting [4]) and in test [2] were 74.5%, above 5% and 56.9%, respectively.

`CN(C[C@H]1CCC2=Cc3c(cnn3-c3ccc(F)cc3)C[C@@]21C)S(=O)(=O)CC(F)(F)F` [Example 177, 2,2,2-trifluoro-N-{[(4αR,5S)-1-(4-fluorophenyl)-4α-methyl-1,4,4α,5,6,7-hexahydrocyclopenta[f]indazol-5-yl]methyl}-N-methylethanesulfonamide]: the “GITAR > GRAMM % SEP” value in test [1] stood at 12.9%. For the same molecule, the EC50 was 177 nM in test [1] and 169 nM in test [2]. For the same molecule, the Emax in test [1] (setting [3]) is 80.2%; in test [1] (setting [4]), above 5%; in test [2], 67.3%.

On to `CCN(C[C@H]1CCC2=Cc3c(cnn3-c3ccc(F)cc3)C[C@@]21C)S(=O)(=O)c1c(C)noc1C` [Example 178, N-ethyl-N-{[(4αR,5S)-1-(4-fluorophenyl)-4α-methyl-1,4,4α,5,6,7-hexahydrocyclopenta[f]indazol-5-yl]methyl}-3,5-dimethylisoxazole-4-sulfonamide], for which, in test [1], the “GITAR > GRAMM % SEP” value is 19.5%. Moreover, the EC50 in test [1] amounted to 276 nM; in test [2] it was 110 nM. In addition, the Emax in test [1] (setting [3]) is 74.5%; in test [1] (setting [4]) it was above 5%; in test [2], 55%.

As for `CCN(C[C@H]1CCC2=Cc3c(cnn3-c3ccc(F)cc3)C[C@@]21C)S(=O)(=O)CC(F)(F)F` [Example 179, N-ethyl-2,2,2-trifluoro-N-{[(4αR,5S)-1-(4-fluorophenyl)-4α-methyl-1,4,4α,5,6,7-hexahydrocyclopenta[f]indazol-5-yl]methyl}ethanesulfonamide], the “GITAR > GRAMM % SEP” value in test [1] was found to be 31.2%. For the same molecule, the figures for the EC50 in test [1] and in test [2] were 440 nM and 277 nM, respectively. For the same molecule, the Emax in test [1] (setting [3]) was 96.5%; in test [1] (setting [4]), above 5%; in test [2] it was 65.4%.

Turning to `COC(=O)c1ccccc1CS(=O)(=O)N(C[C@H]1CCC2=Cc3c(cnn3-c3ccc(F)cc3)C[C@@]21C)C[C@@H](C)O` [Example 180, methyl 2-[({{[(4αR,5S)-1-(4-fluorophenyl)-4α-methyl-1,4,4α,5,6,7-hexahydrocyclopenta[f]indazol-5-yl]methyl}[(2R)-2-hydroxypropyl]amino}sulfonyl)methyl]benzoatee], the “GITAR > GRAMM % SEP” value in test [1] came to 39.5%. Moreover, the EC50 in test [1] stood at 187 nM; in test [2], 247 nM. The Emax in test [1] (setting [3]) is 77.7%; in test [1] (setting [4]), above 5%; in test [2], 38.1%.

Turning to `COC(=O)c1ccccc1CS(=O)(=O)N(C[C@H]1CCC2=Cc3c(cnn3-c3ccc(F)cc3)C[C@@]21C)C[C@H](C)O` [Example 181, methyl 2-[({{[(4αR,5S)-1-(4-fluorophenyl)-4α-methyl-1,4,4α,5,6,7-hexahydrocyclopenta[f]indazol-5-yl]methyl}[(2S)-2-hydroxypropyl]amino}sulfonyl)methyl]benzoate], the “GITAR > GRAMM % SEP” value in test [1] amounted to 24.7%. Also, the EC50 in test [1] came to 263 nM; in test [2], 364 nM. Moreover, the Emax in test [1] (setting [3]) is 79.2%; in test [1] (setting [4]), above 5%; in test [2], 54.6%.

On to `C[C@@H](O)CN(C[C@H]1CCC2=Cc3c(cnn3-c3ccc(F)cc3)C[C@@]21C)S(=O)(=O)Cc1ccccc1C(=O)O` [Example 182, 2-[({{[(4αR,5S)-1-(4-fluorophenyl)-4α-methyl-1,4,4α,5,6,7-hexahydrocyclopenta[f]indazol-5-yl]methyl}[(2R)-2-hydroxypropyl]amino}sulfonyl)methyl]benzoic acid], for which the “GITAR > GRAMM % SEP” value in test [1] is reported as 8.2%. The EC50 in test [1] turned out to be 1890 nM; in test [2] it was 4760 nM. Besides, the Emax is 16.2% in test [1] (setting [3]), above 5% in test [1] (setting [4]) and 8% in test [2].

As to `C[C@H](O)CN(C[C@H]1CCC2=Cc3c(cnn3-c3ccc(F)cc3)C[C@@]21C)S(=O)(=O)Cc1ccccc1C(=O)O` [Example 183, 2-[({{[(4αR,5S)-1-(4-fluorophenyl)-4α-methyl-1,4,4α,5,6,7-hexahydrocyclopenta[f]indazol-5-yl]methyl}[(2S)-2-hydroxypropyl]amino}sulfonyl)methyl]benzoic acid], the “GITAR > GRAMM % SEP” value in test [1] is recorded as 8.2%. For the same molecule, the EC50 in test [1] turned out to be 3310 nM; in test [2], 4500 nM. Moreover, the Emax is 23.2% in test [1] (setting [3]), above 5% in test [1] (setting [4]) and 15% in test [2].

Turning to `C[C@@H](O)CN(C[C@H]1CCC2=Cc3c(cnn3-c3ccc(F)cc3)C[C@@]21C)S(=O)(=O)Cc1ccccc1C(N)=O` [Example 184, 2-[({{[(4αR,5S)-1-(4-fluorophenyl)-4α-methyl-1,4,4α,5,6,7-hexahydrocyclopenta[f]indazol-5-yl]methyl}[(2R)-2-hydroxypropyl]amino}sulfonyl)methyl]benzamide], in test [1], the “GITAR > GRAMM % SEP” value is 38.7%. Also, the EC50 in test [1] was 562 nM; in test [2], 422 nM. Besides, the values for the Emax in test [1] (setting [3]), in test [1] (setting [4]) and in test [2] were 60.3%, above 5% and 21.6%, respectively.

Take `C[C@H](O)CN(C[C@H]1CCC2=Cc3c(cnn3-c3ccc(F)cc3)C[C@@]21C)S(=O)(=O)Cc1ccccc1C(N)=O` [Example 185, 2-[({{[(4αR,5S)-1-(4-fluorophenyl)-4α-methyl-1,4,4α,5,6,7-hexahydrocyclopenta[f]indazol-5-yl]methyl}[(2S)-2-hydroxypropyl]amino}sulfonyl)methyl]benzamide]: the “GITAR > GRAMM % SEP” value in test [1] is recorded as 43.1%. The EC50 in test [1] is 676 nM; in test [2], 250 nM. For the same molecule, the Emax is 63% in test [1] (setting [3]), above 5% in test [1] (setting [4]) and 19.9% in test [2].

As for `COC(=O)c1ccccc1S(=O)(=O)N(C[C@H]1CCC2=Cc3c(cnn3-c3ccc(F)cc3)C[C@@]21C)C[C@@H](C)O` [Example 186, methyl 2-({{[(4αR,5S)-1-(4-fluorophenyl)-4α-methyl-1,4,4α,5,6,7-hexahydrocyclopenta[f]indazol-5-yl]methyl}[(2R)-2-hydroxypropyl]amino}sulfonyl)benzoate], the “GITAR > GRAMM % SEP” value in test [1] was 27.7%. In addition, the EC50 came out at 697 nM in test [1] and 509 nM in test [2]. Besides, the figures for the Emax in test [1] (setting [3]), in test [1] (setting [4]) and in test [2] were 63.5%, above 5% and 35.8%, respectively.
